Test results from the NIST ThermoML archive (doi:10.1016/j.jct.2014.01.012).

Assay: xn = mol fraction of the nth substance listed
Conditions: 101 kPa, Liquid; for speed of sound: Sing-around technique in a fixed-path interferometer; for mass density: Vibrating tube method

CCCCCCn1cc[n+](C)c1.F[P-](F)(F)(F)(F)F [1-hexyl-3-methylimidazolium hexafluorophosphate] + CCOC(C)=O
Conditions	mass density [kg/m3]	speed of sound [m/s]
293.15 K, x1 = 0.09053	985.573	1203.8
293.15 K, x1 = 0.1751	1047.27	1245.1
293.15 K, x1 = 0.2748	1103.27	1278.6
293.15 K, x1 = 0.3638	1142.32	1312.1
293.15 K, x1 = 0.4747	1181.82	1341.9
293.15 K, x1 = 0.5959	1215.82	1369.5
293.15 K, x1 = 0.6988	1239.42	1390.2
293.15 K, x1 = 0.7782	1254.92	1404.4
293.15 K, x1 = 0.8784	1272.57	1417.2
293.15 K, x1 = 0.9562	1285.17	1428.1
293.15 K, x1 = 1	1291.38	1436.9
298.15 K, x1 = 0.09053	980.708	1182.9
298.15 K, x1 = 0.1751	1042.71	1226
298.15 K, x1 = 0.2748	1098.95	1260.9
298.15 K, x1 = 0.3638	1138.08	1295.7
298.15 K, x1 = 0.4747	1177.55	1326.9
298.15 K, x1 = 0.5959	1211.68	1355.6
298.15 K, x1 = 0.6988	1235.47	1376.8
298.15 K, x1 = 0.7782	1251.3	1388.5
298.15 K, x1 = 0.8784	1269.1	1402.5
298.15 K, x1 = 0.9562	1281.27	1414.1
298.15 K, x1 = 1	1287.34	1423.5
303.15 K, x1 = 0.09053	975.56	1162.1
303.15 K, x1 = 0.1751	1037.99	1207
303.15 K, x1 = 0.2748	1094.55	1243.1
303.15 K, x1 = 0.3638	1133.41	1279.1
303.15 K, x1 = 0.4747	1173.05	1312.1
303.15 K, x1 = 0.5959	1207.51	1341.7
303.15 K, x1 = 0.6988	1231.55	1363.6
303.15 K, x1 = 0.7782	1247.62	1375.4
303.15 K, x1 = 0.8784	1265.46	1388.1
303.15 K, x1 = 0.9562	1277.49	1402.6
303.15 K, x1 = 1	1283.29	1410.6
308.15 K, x1 = 0.09053	970.46	1141.5
308.15 K, x1 = 0.1751	1033.19	1188.2
308.15 K, x1 = 0.2748	1089.85	1225.7
308.15 K, x1 = 0.3638	1128.89	1261.3
308.15 K, x1 = 0.4747	1168.92	1297.4
308.15 K, x1 = 0.5959	1203.51	1328
308.15 K, x1 = 0.6988	1227.75	1350.6
308.15 K, x1 = 0.7782	1243.95	1365
308.15 K, x1 = 0.8784	1261.82	1375.1
308.15 K, x1 = 0.9562	1273.69	1391
308.15 K, x1 = 1	1279.4	1398.2
313.15 K, x1 = 0.09053	964.46	1120.9
313.15 K, x1 = 0.1751	1027.59	1169.4
313.15 K, x1 = 0.2748	1084.79	1208.5
313.15 K, x1 = 0.3638	1124.28	1246.5
313.15 K, x1 = 0.4747	1164.75	1282.8
313.15 K, x1 = 0.5959	1199.65	1313.8
313.15 K, x1 = 0.6988	1224.15	1337.7
313.15 K, x1 = 0.7782	1240.32	1349.8
313.15 K, x1 = 0.8784	1258.46	1359.6
313.15 K, x1 = 0.9562	1270.35	1378
313.15 K, x1 = 1	1275.48	1386
318.15 K, x1 = 0.09053	960.532	1100.5
318.15 K, x1 = 0.1751	1023.8	1150.8
318.15 K, x1 = 0.2748	1080.46	1191.3
318.15 K, x1 = 0.3638	1119.61	1231.9
318.15 K, x1 = 0.4747	1160.23	1268.4
318.15 K, x1 = 0.5959	1195.59	1300.3
318.15 K, x1 = 0.6988	1220.56	1324.8
318.15 K, x1 = 0.7782	1236.86	1337.1
318.15 K, x1 = 0.8784	1254.52	1348.4
318.15 K, x1 = 0.9562	1266.02	1366
318.15 K, x1 = 1	1271.56	1374.2
323.15 K, x1 = 0.09053	955.246	1080.2
323.15 K, x1 = 0.1751	1018.76	1132.3
323.15 K, x1 = 0.2748	1075.54	1174.3
323.15 K, x1 = 0.3638	1114.9	1216.3
323.15 K, x1 = 0.4747	1155.92	1254.2
323.15 K, x1 = 0.5959	1191.86	1287.2
323.15 K, x1 = 0.6988	1217.05	1311.7
323.15 K, x1 = 0.7782	1233.69	1324.4
323.15 K, x1 = 0.8784	1251.25	1335.4
323.15 K, x1 = 0.9562	1262.25	1355.1
323.15 K, x1 = 1	1267.63	1362.5
